Test systems include EKVX; UACC-257; SW-620; DMS-273; OVCAR-4; HCT-15; NCI-H460; KM-20L2; HOP-92; CAKI-1; MCF7; SNB-78; MDA-MB-435; M14; ACHN; DU-145; NCI/ADR-RES; M19-MEL; LXFL 529; DMS-114.
Holding throughout (experiment): NCI anticancer screen, dose series, 48 h

The structures appear in SMILES notation.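 Compound exposure: 48 hours, 5 concentrations, 96-well plates. GI50 is the concentration that inhibits growth by half.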 Active and inactive are the calls of the source. Cut-off read from the data, not from the text of the source: active = GI50 up to about 1.1 µM and inactive = higher. Bounds are passed on as bounds.

As to `Cc1n(CC(=O)c2ccc([N+](=O)[O-])cc2)c2c([n+]1CC(C)C)C(=O)c1ccccc1C2=O`, the GI50 with EKVX was < 0.0109 µM (active); in the assay with UACC-257, < 0.01 µM (active); in the assay with SW-620, < 0.01 µM (active); in the assay with DMS-273, < 0.01 µM (active); with OVCAR-4 it was < 0.0178 µM (active); in the assay with HCT-15, 2.88 µM. For the same compound, the GI50 in the assay on NCI-H460 is < 0.04 µM (active); in the assay with KM-20L2 it was < 0.01 µM (active); in the assay on HOP-92, < 0.0226 µM (active); with CAKI-1, 0.121 µM (active); in the assay with MCF7, < 0.01 µM (active); in the assay with SNB-78 it was < 0.0137 µM (active).
As to `O=S(=O)(c1ccc(I)cc1)N(c1ccccc1)S(=O)(=O)C(F)(F)C(F)(F)C(F)(F)C(F)(F)F`, the GI50 in the assay on MDA-MB-435 is > 100 µM (inactive); in the assay on EKVX, 40.8 µM (inactive); with UACC-257, > 100 µM (inactive); in the assay with SW-620, 34.7 µM (inactive); in the assay with OVCAR-4, 24.5 µM (inactive); in the assay on HCT-15 it was 41.2 µM. Also, the GI50 in the assay on M14 is 34.8 µM (inactive); in the assay on ACHN it was 58.2 µM (inactive); in the assay with NCI-H460 it was 31.9 µM (inactive); in the assay with HOP-92, 15.4 µM (inactive); with CAKI-1, 34.1 µM (inactive); in the assay with DU-145, 46.7 µM (inactive). Moreover, the GI50 in the assay on NCI/ADR-RES was 43.3 µM (inactive); in the assay with MCF7, 26.9 µM (inactive).
On to `COc1cccc(CC2Cc3ccccc3CC(=O)N2)c1` (stereo unspecified), for which the GI50 with MDA-MB-435 is 32.7 µM (inactive); in the assay on EKVX, 35.6 µM (inactive); with UACC-257, 29.2 µM (inactive); in the assay with SW-620 it was 85.1 µM (inactive); in the assay with OVCAR-4, > 100 µM (inactive); in the assay with M14, 14 µM (inactive). Further, the GI50 in the assay with ACHN is 76.2 µM (inactive); with NCI-H460 it was 20.9 µM (inactive); in the assay on HOP-92 it was 24.1 µM (inactive); in the assay with CAKI-1 it was 16.6 µM (inactive); in the assay on DU-145, > 100 µM (inactive); in the assay on NCI/ADR-RES it was 20 µM (inactive). Also, the GI50 with MCF7 was 30.4 µM (inactive).
Regarding `O=C(CC1Sc2ccccc2NC1=O)Nc1ccccc1[N+](=O)[O-]` (stereo unspecified), the GI50 with M19-MEL, in the assay with EKVX, in the assay on UACC-257, in the assay on SW-620, with DMS-273 and with OVCAR-4 was > 100 µM (inactive) throughout. Besides, the GI50 was more than 100 µM in the assay on HCT-15; > 100 µM (inactive) in the assay with M14; > 100 µM (inactive) in the assay on ACHN; > 100 µM (inactive) in the assay with NCI-H460; > 100 µM (inactive) in the assay on KM-20L2; > 100 µM (inactive) in the assay on LXFL 529. The GI50 in the assay on HOP-92, with CAKI-1 and in the assay on SNB-78 was > 100 µM (inactive) each time.
With `O=NN(CC1(O)OCC(O)C(O)C1O)C(Cc1c[nH]c2ccccc12)C(=O)O` (stereo unspecified), the GI50 in the assay on M19-MEL, in the assay with EKVX, in the assay on UACC-257, in the assay on SW-620, in the assay with DMS-273 and with M14 was > 100 µM (inactive) throughout. Besides, the GI50 with ACHN, in the assay with NCI-H460, in the assay on KM-20L2, with HOP-92, with DMS-114 and with SNB-78 was > 100 µM (inactive) each time.
On to `COc1ccc(CCn2nccc2C)cc1`, for which the GI50 in the assay with MDA-MB-435 is > 100 µM (inactive); in the assay with EKVX, 93.8 µM (inactive); in the assay with UACC-257 it was > 100 µM (inactive); with SW-620, > 100 µM (inactive); with OVCAR-4, > 100 µM (inactive); in the assay on HCT-15, more than 100 µM. Also, the GI50 with M14, in the assay on ACHN, in the assay with NCI-H460, in the assay with CAKI-1, in the assay on DU-145 and with NCI/ADR-RES was > 100 µM (inactive) throughout. Moreover, in the assay with MCF7, the GI50 is > 100 µM (inactive).
As to `CC(=O)Oc1ccccc1[C@H]1CC(=O)C[C@H](c2ccccc2OC(C)=O)C12C(=O)c1ccccc1C2=O`, the GI50 with MDA-MB-435 was 14.7 µM (inactive); with OVCAR-4 it was 65.6 µM (inactive); in the assay on HCT-15, 26.2 µM; in the assay on M14, 19.9 µM (inactive); in the assay on NCI-H460, 19.1 µM (inactive); with HOP-92 it was 47.9 µM (inactive). Besides, the figures for the GI50 in the assay on CAKI-1, with DU-145 and with NCI/ADR-RES were 20.9 µM (inactive), 35.4 µM (inactive) and 29.2 µM (inactive), respectively.
For `Cc1nc2c(n1C)C(=O)c1nc(CBr)[nH]c(=O)c1C2=O`, the GI50 was > 100 µM (inactive) in the assay on M19-MEL; 24.4 µM (inactive) with EKVX; > 100 µM (inactive) in the assay with SW-620; > 100 µM (inactive) in the assay with DMS-273; more than 100 µM with HCT-15; 35.9 µM (inactive) in the assay on M14. The GI50 is > 100 µM (inactive) in the assay with ACHN; > 100 µM (inactive) with NCI-H460; > 100 µM (inactive) in the assay on KM-20L2; > 100 µM (inactive) with LXFL 529; > 100 µM (inactive) with HOP-92; 75.9 µM (inactive) with DMS-114.
`CSCC[C@@H](NC(=O)[C@H](CC(C)C)NC(=O)C(Cc1cnc[nH]1)NC(=O)CNC(=O)[C@@H](NC(=O)[C@H](C)NC(=O)[C@H](Cc1cn(C=O)c2ccccc12)NC(=O)[C@H](CCC(N)=O)NC(=O)[C@@H](N)CC(N)=O)C(C)C)C(N)=O` (stereo partly specified): the GI50 with M19-MEL, in the assay with EKVX, in the assay with UACC-257, with SW-620, in the assay on DMS-273 and in the assay with OVCAR-4 was > 100 µM (inactive) in each case. In addition, the GI50 with HCT-15 was more than 100 µM; in the assay with NCI-H460, > 100 µM (inactive); in the assay on KM-20L2 it was > 100 µM (inactive); in the assay with NCI/ADR-RES, > 100 µM (inactive); in the assay on MCF7 it was > 100 µM (inactive); in the assay on DMS-114, > 100 µM (inactive). Moreover, in the assay on SNB-78, the GI50 was > 100 µM (inactive).
`COc1ccccc1-c1cc(O)c2cc(C)cnc2n1`: the GI50 with MDA-MB-435 was 3.8 µM (inactive); in the assay with EKVX, 52.1 µM (inactive); with UACC-257 it was 38 µM (inactive); in the assay on SW-620 it was 24.7 µM (inactive); in the assay with OVCAR-4, > 100 µM (inactive); in the assay with HCT-15, 19.3 µM. The GI50 is 37.9 µM (inactive) in the assay with M14; 68.7 µM (inactive) with ACHN; 36.8 µM (inactive) in the assay on HOP-92; 19.3 µM (inactive) in the assay with CAKI-1; 47.9 µM (inactive) in the assay with DU-145; 15 µM (inactive) with NCI/ADR-RES. Also, the GI50 with MCF7 was 47.5 µM (inactive).
With `C=C1C2=C(CCCC2)C(=O)OC12CCCCC2`, the GI50 was 46.5 µM (inactive) with M19-MEL; 52.1 µM (inactive) in the assay with EKVX; 52.1 µM (inactive) with UACC-257; > 100 µM (inactive) in the assay on SW-620; 51.4 µM (inactive) in the assay with DMS-273; 98.2 µM (inactive) in the assay with OVCAR-4. For the same compound, the GI50 in the assay with HCT-15 was 60.1 µM; in the assay on M14, > 100 µM (inactive); in the assay on ACHN, 40.9 µM (inactive); with NCI-H460 it was 91.4 µM (inactive); in the assay on KM-20L2, > 100 µM (inactive); in the assay on LXFL 529 it was 40.7 µM (inactive). For the same compound, the figures for the GI50 in the assay on HOP-92 and in the assay with DMS-114 were 19.5 µM (inactive) and 29.5 µM (inactive), respectively.
Turning to `O=C1C(Cl)N(c2ccc([N+](=O)[O-])cc2)C1c1c[nH]c2ccccc12` (stereo unspecified), the GI50 in the assay with M19-MEL was > 100 µM (inactive); in the assay with EKVX it was > 100 µM (inactive); with UACC-257, 64.1 µM (inactive); with SW-620, > 100 µM (inactive); in the assay on OVCAR-4, 53 µM (inactive); in the assay on M14, 64.7 µM (inactive). For the same compound, the GI50 in the assay on NCI-H460 was 41.7 µM (inactive); in the assay with KM-20L2, 41.2 µM (inactive); with LXFL 529, 36.2 µM (inactive); with HOP-92 it was 83 µM (inactive); in the assay on DMS-114, 38 µM (inactive).
On to `Cc1ccc(SSCCCCCS(=O)O)cc1`, for which the GI50 in the assay on M19-MEL is 37.6 µM (inactive); in the assay with EKVX, 45.3 µM (inactive); in the assay with UACC-257 it was 31.2 µM (inactive); with OVCAR-4, 40 µM (inactive); in the assay on M14, 40.4 µM (inactive); with ACHN, 57.7 µM (inactive). In addition, the GI50 was 48.5 µM (inactive) in the assay with NCI-H460, 14.6 µM (inactive) with LXFL 529, 21 µM (inactive) in the assay with DMS-114 and 25.4 µM (inactive) in the assay on SNB-78.
On to `CCCCSCCC(N)P(=O)(O)O` (stereo unspecified), for which the GI50 in the assay on MDA-MB-435 is > 100 µM (inactive); in the assay on UACC-257, > 100 µM (inactive); in the assay on SW-620, > 100 µM (inactive); in the assay with OVCAR-4 it was > 100 µM (inactive); with HCT-15, more than 100 µM; in the assay with M14 it was > 100 µM (inactive). Also, the GI50 in the assay with ACHN, in the assay on NCI-H460, in the assay with HOP-92, in the assay with CAKI-1, in the assay with DU-145 and in the assay on NCI/ADR-RES was > 100 µM (inactive) throughout. Moreover, the GI50 in the assay with MCF7 was > 100 µM (inactive).
Turning to `O=C(O)Cc1ccc(N2N=C(c3ccccc3)CC2=O)cc1`, the GI50 was > 100 µM (inactive) in the assay with EKVX; > 100 µM (inactive) with UACC-257; > 100 µM (inactive) in the assay on SW-620; > 100 µM (inactive) in the assay on OVCAR-4; more than 100 µM in the assay on HCT-15; > 100 µM (inactive) with M14. Besides, the GI50 with ACHN, in the assay on NCI-H460, in the assay with CAKI-1, in the assay on DU-145, with NCI/ADR-RES and with MCF7 was > 100 µM (inactive) each time.

These data come from ChEMBL document CHEMBL1201862, “PubChem BioAssay data set” (2004).
